According to patent US12121522B2, “Methods of treating cancer with an mTOR inhibitor” (Revolution Medicines, Inc., priority 2022, dated 2024):

Assays:
HN009 HNSCC PDX = test: HN009 HNSCC patient-derived xenograft; assay type: in vivo, mouse
Source text: FIGS. 3A-3B show Antitumor Activity of RMC-5552 in the HN009 Patient-Derived Xenograft Model of Human HNSCC Following Once-Weekly Administration. Abbreviations: ANOVA=analysis of variance; IP=intraperitoneal; QW=once weekly. […] Each animal represented as a separate bar. The number of tumor regressions out of total mice in that group is shown (tumor regression defined as >10% reduction in tumor volume from starting volume) in each group.
(§1) The antitumor activity of RMC-5552 as a single agent against tumors predicted to be dependent on the mTOR pathway and/or bearing specific PI3K/mTOR pathway-activating mutations (i.e., PIK3CA^mut, phosphatase and tensin homolog [PTEN^LOF], or co-mutation of both and tuberous sclerosis complex [TSC^LOF]) was evaluated in selected CDX and/or PDX models
(§2) Table 1. RMC-5552 was administered IP once weekly at 1, 3, 10, and 30 mg/kg. In the breast cancer MCF7 PIK3CA^[…] model, a higher dose of 50 mg/kg once weekly and an alternate dose regimen of 30 mg/kg every 10 days were also evaluated.

[1] = test system: TOV21G ovarian cancer CDX; test: TOV21G ovarian cancer xenograft; assay type: in vivo, mouse
Description: FIGS. 2A-2D show Antitumor Activity of RMC-5552 in the TOV21G Cell Line-Derived Xenograft Model of Human Ovarian Cancer Following Once-Weekly Administration. Abbreviations: ANOVA=analysis of variance; IP=intraperitoneal; QW=once weekly. […] Each animal represented as a separate bar. Number of animals per group=10, or n=5 in 3 mg/kg dosing arm. Numbers indicate number of regressions at respective doses (defined as >10% reduction in tumor volume from starting volume) in each group. […] FIG. 2D reflects Kaplan-Meier survival analysis of the time for TOV21G tumors to regrow to a tumor volume of 300 mm^3 following treatment cessation. Median time to regrowth in RMC-5552 3 mg/kg arm is 61 days, while 10 mg/kg dose survival time was undefined, extending past 73 days. Dotted horizontal line indicates time to regrowth of 50% of the tumors in a treatment.
as §1, §2

4EBP3 mRNA expression = 4EBP3 mRNA expression in whole blood; assay type: in vivo, human; conditions: cohorts treated with at least 3.0 mg; sustained over a 6-hour period
Source text: Whole blood was collected from all subjects in dose escalation at CID1 prior to dosing, and 6 timepoints after EOI. In each sample, 4EBP3 mRNA expression was quantified as a pharmacodynamic indicator of mTORC1 inhibition.

[2] = test system: murine models of mTORC1-activated cancers; conditions: mouse, in vivo
Description: as §1

[3] = test system: MCF7 PIK3CA^E545K breast cancer CDX; test: MCF7 breast cancer xenograft; assay type: in vivo, mouse
Source text: FIGS. 1A-1B show Dose-Dependent Antitumor Effects of Repeated RMC-5552 Weekly Treatment in the MCF7 Xenograft Model of Human Estrogen Receptor Positive Breast Cancer in Athymic Nude Mice. Abbreviations: ANOVA=analysis of variance; IP=intraperitoneal; QW=once weekly. […] Each animal represented as a separate bar. Number of animals per group=12. Numbers indicate number of regressions at respective doses (defined as >10% reduction in tumor volume from starting volume) in each group.
as §1, §2

tumor p4EBP1 = test: PK-pharmacodynamics of tumor p4EBP1 and pS6RP in MCF7 tumor-bearing mice; assay type: in vivo, mouse
Source text: FIGS. 4A-4C show Pharmacokinetic-Pharmacodynamic Profile for RMC-5552 Modulation of Tumor p4EBP1 and pS6RP in MCF7 Tumor Bearing Athymic Nude Mice. Abbreviations: IP=intraperitoneal; p4EBP1=phosphorylated eukaryotic translation initiation factor 4E-binding protein 1; PK=pharmacokinetic; pS6RP=phosphorylated S6 ribosomal protein; u=unbound. […] Data represent means±standard errors (n=3).
Colors of symbols denote time of tissue harvest following IP administration of a single dose of RMC-5552. […] Data represent means standard errors (n=3).
The in vivo PK-pharmacodynamic relationship for inhibition of activated mTOR pathway signaling of RMC-5552 as a single agent was determined in the breast cancer MCF7 and HCC-1954 PIK3CA mutant CDX models.
Consistent with inhibition of mTORC1 signaling in vitro, IP administration of RMC-5552 to nude mice produced a dose and plasma concentration-dependent-inhibition of tumor p4EBP1 and pS6RP (a direct substrate of P70S6K) in PI3K mutant breast cancer MCF7 xenograft models FIG. 5. Inhibition of p4EBP1 was maximal at 24 to 48 hours after treatment.

CO[C@H]1C[C@@H]2CC[C@@H](C)[C@@](O)(O2)C(=O)C(=O)N2CCCC[C@H]2C(=O)O[C@H]([C@H](C)C[C@@H]2CC[C@@H](OC(=O)NCCOCCOCCOCCOCCOCCOCCOCCOCCC(=O)N3CCc4cc(Cn5nc(-c6ccc7oc(N)nc7c6)c6c(N)ncnc65)ccc4C3)[C@H](OC)C2)C[C@@H](O)[C@H](C)/C=C(\C)[C@@H](O)[C@@H](OC)C(=O)[C@H](C)C[C@H](C)/C=C/C=C/C=C/1C [RMC-5552]
TGI (HN009 HNSCC PDX; 3 mg/kg IP QW): 91% | tumor regression (HN009 HNSCC PDX; 10 mg/kg IP QW): 17% regression | tumor regression ([1]; 3 mg/kg IP QW): 34% regression | median time to regrowth to 300 mm^3 after treatment cessation ([1]; 3 mg/kg QW IP, 4 doses): 61 days | tumor regression ([1]; 10 mg/kg IP QW): 61% regression | time to regrowth to 300 mm^3 after treatment cessation (undefined) ([1]; 10 mg/kg QW IP, 4 doses): > 73 days | 4EBP3 mRNA expression in whole blood (4EBP3 mRNA expression): increased from baseline | tolerability of doses and regimens [2]: generally well-tolerated | TGI ([3]; 1 mg/kg IP QW): 64% | TGI ([3]; 3 mg/kg IP QW): 93% | TGI ([3]; 10 mg/kg IP QW): 93% | tumor regression ([3]; dose not printed on this line): 15% regression | maximum level of inhibition of p4EBP1 relative to control (tumor p4EBP1; MCF7, single IP dose): > 90% | EC50 (tumor p4EBP1; unbound plasma concentration, MCF7, read-out: in vivo EC50 for inhibition of p4EBP1): 220 pM
